Test results as given in patent US20060100431A1, “Biologically active compounds” (Amura Therapeutics Limited, priority 2002, published 2006).

Key:
Format in all cases: biochemical
[1] = molecular target: Wild-type cruzipain (Trypanosoma cruzi, UniProt P25779); test: Trypanosoma cruzi cruzipain peptidase activity assay (Ki); settings: read-out: Ki, inhibitors of cruzain and cruzipains
In short: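 Native cruzipain from T. cruzi Dm28 epimastigotes, 2.5 nM, in 100 mM sodium phosphate pH 6.75 with 1 mM EDTA and 10 mM L-cysteine, 25 °C, DMSO <1%. Rates taken from continuous fluorogenic substrate read; Ki by regression assuming reversible pure-competitive inhibition.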

[2] = molecular target: T1, Bovine cathepsin S (Bos taurus, UniProt P25326); test: Cathepsin S peptidase activity assay, bovine enzyme (Ki); settings: species of cathepsin S not given; read-out: Ki, inhibitors of cathepsin S
T1 construct: purchased CN Biosciences
T1 sequence (P25326 115-331): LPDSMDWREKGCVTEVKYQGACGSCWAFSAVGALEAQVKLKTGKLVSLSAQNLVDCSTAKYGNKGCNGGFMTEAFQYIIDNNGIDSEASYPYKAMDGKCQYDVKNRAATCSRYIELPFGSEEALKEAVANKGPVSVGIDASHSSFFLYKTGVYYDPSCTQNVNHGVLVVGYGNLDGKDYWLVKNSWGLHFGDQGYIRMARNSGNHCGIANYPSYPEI
Protocol: Unless otherwise stated, all general chemicals and biochemicals were purchased from either the Sigma Chemical Company, Poole, Dorset, U.K or from Fisher Scientific UK, Loughborough, Leicestershire, U.K. Absorbance assays were carried out in flat-bottomed 96-well plates (Spectra; Greiner Bio-One Ltd., Stonehouse, Gloucestershire, U.K.) using a SpectraMax PLUS384 plate reader (Molecular Devices, Crawley, U.K.). Fluorescence high throughput assays were carried out in either 384-well microtitre plates (Corning Costar 3705 plates, Fisher Scientific) or 96-well ‘U’ bottomed Microfluor W1 microtitre plates (Thermo Labsystems, Ashford, Middlesex, U.K.). Fluorescence assays were monitored using a SpectraMax Gemini fluorescence plate reader (Molecular Devices). For substrates employing either a 7-amino-4-methylcoumarin (AMC) or a 7-amino-4-trifluoromethylcoumarin (AFC) fluorophore, assays were monitored at an excitation wavelength of 365 nm and an emission wavelength of 450 nm and the fluorescence plate reader calibrated with AMC. For substrates employing a 3-amino-benzoyl (Abz) fluorophore, assays were monitored at an excitation wavelength of 310 nm and an emission wavelength of 445 nm; the fluorescence plate reader calibrated with 3-amino-benzamide (Fluka). Unless otherwise indicated, all the peptidase substrates were purchased from Bachem UK, St Helens, Merseyside, UK. Substrates utilizing fluorescence resonance energy transfer methodology (i.e. FRET-based substrates) were synthesized at Incenta Limited using published methods (Atherton & Sheppard, Solid Phase Peptide Synthesis, IRL Press, Oxford, U.K, 1989) and employed Abz (2-aminobenzoyl) as the fluorescence donor and 3-nitro-tyrosine [Tyr(NO2)] as the fluorescence quencher (Meldal, M. and Breddam, K., Anal. Biochem, 195, 141-147, 1991). Hydroxyethylpiperazine ethanesulfonate (HEPES), tris-hydroxylmethyl aminomethane (tris) base, bis-tris-propane and all the biological detergents (e.g. CHAPS, zwittergents, etc.) were purchased from CN Biosciences UK, Beeston, Nottinghamshire, U.K. Glycerol was purchased from Amersham Pharmacia Biotech, Little Chalfont, Buckinghamshire, U.K. Stock solutions of substrate or inhibitor were made up to 10 mM in 100% dimethylsulfoxide (DMSO) (Rathburns, Glasgow, U.K.) and diluted as appropriately required. In all cases the DMSO concentration in the assays was maintained at less than 1% (vol./vol.).
Assay protocols were based on literature precedent (Table 4; Barrett, A. J., Rawlings, N. D. and Woessner, J. F., 1998, Handbook of Proteolytic Enzymes, Academic Press, London and references therein) and modified as required to suit local assay protocols. Enzyme was added as required to initiate the reaction and the activity, as judged by the change in fluorescence upon conversion of substrate to product, was monitored over time. All assays were carried out at 25±1° C.
Bovine cathepsin S, human cathepsin L, human cathepsin H and human cathepsin B were obtained from CN Biosciences. Recombinant human cathepsin S, human cathepsin K and human cathepsin X were obtained from Dr. Boris Turk (Josef Stefan Institute, Ljubljana, Slovenia). Unless otherwise stated, all peptidase activity assays were carried out in 10 mM bis-tris-propane (BTP), pH 6.5 containing 1 mM EDTA, 5 mM 2-mercaptoethanol and 1 mM CaCl2. Human cathepsin H activity assays were carried out in 10 mM BTP pH 6.5, 142 mM NaCl2, 1 mM CaCl2, 1 mM EDTA, 1 mM DTT, 0.035 mM Zwittergent 3-16. Human cathepsin K assays were carried out in 100 mM sodium acetate; pH 5.5 containing 20 mM L-cysteine and 1 mM EDTA (Bossard, M. J., et. al., J. Biol. Chem., 21, 12517-12524, 1996). Human cathepsin X assays were carried out in 100 mM sodium acetate; pH 5.5 containing 20 mM L-cysteine; 0.05% (w/v) Brij 35 and 1 mM EDTA (Santamaria, I., et. al., J. Biol. Chem., 273, 16816-16823, 1998; Klemencic, J, et al., Eur. J. Biochem., 267, 5404-5412, 2000).

[3] = molecular target: T2, CPB2.8ΔCTE (Leishmania mexicana, UniProt P36400); test: Leishmania mexicana cysteine protease B (CPB) peptidase activity assay (Ki); settings: Ki, inhibitors of Leismania mexicana CPB protease
T2 construct: Wild-type recombinant CPB without the C-terminal extention (i.e. CPB2.8ΔCTE); Dr. Jeremy Mottram (Wellcome Centre for Molecular Parasitology, University of Glasgow)
T2 sequence (P36400 126-343, stated change not applied): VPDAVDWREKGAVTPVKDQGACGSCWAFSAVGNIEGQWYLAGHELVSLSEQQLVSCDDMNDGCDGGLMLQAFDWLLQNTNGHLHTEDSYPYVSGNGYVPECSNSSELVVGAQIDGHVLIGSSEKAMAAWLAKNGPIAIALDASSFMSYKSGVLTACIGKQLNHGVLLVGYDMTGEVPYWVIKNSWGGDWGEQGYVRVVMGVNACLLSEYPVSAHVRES
In short: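 Recombinant CPB2.8ΔCTE (0.25 nM) was assayed in 100 mM sodium acetate pH 5.5 with 1 mM EDTA, 200 mM NaCl and 10 mM DTT at 25 °C, DMSO <1%, enzyme added to start. Rates were taken from continuous fluorescence slopes; apparent Ki was fitted assuming reversible, pure-competitive inhibition.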

[4] = molecular target: T3, human cathepsin L (Homo sapiens, UniProt P07711); test: Cathepsin L peptidase activity assay (Ki); settings: read-out: Ki, inhibitors of cathepsin L
T3 construct: purchased CN Biosciences
T3 sequence (P07711 114-333): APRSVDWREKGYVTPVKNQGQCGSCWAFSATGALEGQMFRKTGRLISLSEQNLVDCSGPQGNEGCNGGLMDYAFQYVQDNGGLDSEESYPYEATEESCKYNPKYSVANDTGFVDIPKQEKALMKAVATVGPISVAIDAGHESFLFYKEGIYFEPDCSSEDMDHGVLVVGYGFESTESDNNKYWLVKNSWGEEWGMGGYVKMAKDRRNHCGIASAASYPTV
In short: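 Human cathepsin L at 1 nM with Ac-Phe-Arg-AMC at its KM^app (~20 μM) in 10 mM bis-tris-propane pH 6.5, 1 mM EDTA, 5 mM 2-mercaptoethanol, 1 mM CaCl2, DMSO <1%, 25±1° C. Reaction enzyme-initiated; AMC fluorescence (ex 365/em 450 nm) monitored over time.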

Measured: Ki

Wild-type cruzipain, sequence (P25779 whole entry): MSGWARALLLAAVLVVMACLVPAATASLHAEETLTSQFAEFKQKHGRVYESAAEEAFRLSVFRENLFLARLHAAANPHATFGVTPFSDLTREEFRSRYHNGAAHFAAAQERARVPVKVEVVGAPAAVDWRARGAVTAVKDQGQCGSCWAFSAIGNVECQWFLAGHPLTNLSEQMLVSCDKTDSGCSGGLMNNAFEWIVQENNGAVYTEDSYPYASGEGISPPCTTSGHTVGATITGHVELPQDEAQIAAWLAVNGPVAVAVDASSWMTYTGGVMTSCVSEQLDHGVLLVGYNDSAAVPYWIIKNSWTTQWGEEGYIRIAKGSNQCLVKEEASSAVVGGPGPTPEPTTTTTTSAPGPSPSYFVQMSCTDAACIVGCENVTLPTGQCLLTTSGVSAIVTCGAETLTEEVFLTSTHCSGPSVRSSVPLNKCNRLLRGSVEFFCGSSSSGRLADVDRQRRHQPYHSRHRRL

CCC[C@H](NC(C)=O)C(=O)N1CC(=O)[C@@H]2[C@H]1CCN2C(=O)[C@H](CC(C)C)NC(=O)c1ccc(N(C)C)cc1 [Example 245, (3aR,6aS)-N-{(1S)-1-[4-((2S)-2-Acetylamino-pentanoyl)-6-oxo-hexahydro-pyrrolo[3,2-b]pyrrole-1-carbonyl]-3-methyl-butyl}-4-dimethylamino-benzamide]
< 5 µM: all assays above

CC(C)C[C@H](NC(=O)c1ccc(N2CCOCC2)cc1)C(=O)N1CC[C@@H]2[C@H]1C(=O)CN2C(=O)c1ccccc1 [Example 85, (3aR,6aS)-N-[(1S)-1-(4-Benzoyl-6-oxo-hexahydro-pyrrolo[3,2-b]pyrrole-1-carbonyl)-3-methyl-butyl]-4-morpholin-4-yl-benzamide]
< 5 µM: all assays above

CC(C)C[C@H](NC(=O)c1ccc(C(C)C)cc1)C(=O)N1CC[C@@H]2[C@H]1C(=O)CN2C(=O)c1ccccc1 [Example 172, (3aR,6aS)-N-[(1S)-1-(4-Benzoyl-6-oxo-hexahydro-pyrrolo[3,2-b]pyrrole-1-carbonyl)-3-methyl-butyl]-4-isopropyl-benzamide]
< 5 µM: all assays above

CC(C)C[C@H](NC(=O)c1ccc2cc[nH]c2c1)C(=O)N1CC[C@@H]2[C@H]1C(=O)CN2C(=O)c1ccccc1 [Example 88, (3aR,6aS)-1H-Indole-6-carboxylic acid [(1S)-1-(4-benzoyl-6-oxo-hexahydro-pyrrolo[3,2-b]pyrrole-1-carbonyl)-3-methyl-butyl]-amide]
< 5 µM: all assays above

CC[C@H](C)[C@H](NC(=O)OCc1ccccc1)C(=O)N1CC(=O)[C@@H]2[C@H]1CCN2C(=O)[C@H](CC(C)C)NC(=O)c1ccc(N(C)C)cc1 [Example 161, (3 aS,6aR)-((1S,2S)-1-{4-[(2S)-2-(4-Dimethylamino-benzoylamino)-4-methyl-pentanoyl]-3-oxo-hexahydro-pyrrolo[3,2-b]pyrrole-1-carbonyl}-2-methyl-butyl)-carbamic acid benzyl ester]
< 5 µM: all assays above

CC(C)C[C@H](NC(=O)c1ccc(N(C)C)cc1)C(=O)N1CC[C@@H]2[C@H]1C(=O)CN2C(=O)c1ccsc1 [Example 164, (3aR,6aS)-4-Dimethylamino-N-{(1S)-3-methyl-1-[6-oxo-4-(thiophene-3-carbonyl)-hexahydro-pyrrolo[3,2-b]pyrrole-1-carbonyl]-butyl}-benzamide]
< 5 µM: all assays above

CC(C)C[C@H](NC(=O)c1ccc(N(C)C)cc1)C(=O)N1CC[C@@H]2[C@H]1C(=O)CN2C(=O)[C@@H]1CCCN1C(=O)OCc1ccccc1 [Example 154, (3aS,6aR)-(2S)-2-{4-[(2S)-2-(4-Dimethylamino-benzoylamino)-4-methyl-pentanoyl]-3-oxo-hexahydro-pyrrolo[3,2-b]pyrrole-1-carbonyl}-pyrrolidine-1-carboxylic acid benzyl ester]
< 5 µM: all assays above

CC(C)C[C@H](NC(=O)c1ccc(CN)cc1)C(=O)N1CC[C@@H]2[C@H]1C(=O)CN2C(=O)c1ccccc1 [Example 93, (3aR,6aS)-4-Aminomethyl-N-[(1S)-1-(4-benzoyl-6-oxo-hexahydro-pyrrolo[3,2-b]pyrrole-1-carbonyl)-3-methyl-butyl]-benzamide]
< 5 µM: all assays above
